From PubChem BioAssay (NCI)
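Protocol summary: plate cells (96-well), add compound at 5 concentrations, incubate 48 h, interpolate endpoints linearly. TGI marks complete inhibition of growth.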 Where a SMILES comes first, the peptide text is derived from it.

Experiments:
Assay in all cases: NCI anticancer screen, dose series, 48 h
[1] = system: SK-MEL-5 melanoma
[2] = system: UO-31 renal
[3] = system: ACHN renal
[4] = system: PC-3 prostate
[5] = system: NCI/ADR-RES ovarian
[6] = system: NCI-H23 lung
[7] = system: M14 melanoma
[8] = system: MDA-MB-435
[9] = system: U251 CNS
[10] = system: SN12C renal
[11] = system: SR leukemia
[12] = system: SF-268 CNS
[13] = system: A498 renal
[14] = system: RXF 393 renal
[15] = system: SNB-19 CNS
[16] = system: HT29 colon
[17] = system: OVCAR-4 ovarian
[18] = system: MDA-N
[19] = system: COLO 205 colon

SMILES	TGI [1] [µM]	TGI [2] [µM]	TGI [3] [µM]	TGI [4] [µM]	TGI [5] [µM]	TGI [6] [µM]	TGI [7] [µM]	TGI [8] [µM]	TGI [9] [µM]	TGI [10] [µM]	TGI [11] [µM]	TGI [12] [µM]	TGI [13] [µM]	TGI [14] [µM]	TGI [15] [µM]	TGI [16] [µM]	TGI [17] [µM]	TGI [18] [µM]	TGI [19] [µM]
CCOC(=O)N1CCN(c2nc(C)n(-c3ccccc3)c(=S)c2C#N)CC1	> 100	> 100	> 100	> 100	> 100	> 100	> 100	> 100	> 100	> 100	> 100	> 100	> 100	> 100	> 100	> 100	> 100	> 72.2	> 100
Clc1ccc(C2=C(c3ccccc3)C(c3ccc(Cl)cc3)N3C(=N[C@H]4CCCC[C@@H]43)N2)cc1 (stereo not given in full)	24.8	26.4	23.2	21.8	28.1	28	24.8	27.6	23.3		5.56	44.8	31.1	27.6	27.6	11.7	21.4	28	19.4
CC1=CC(=O)[C@@H](O)[C@]2(C)[C@H]3[C@@]4(O)OC[C@@]35[C@@H](C[C@@H]12)OC(=O)C(OC(=O)CC1=CCCC1)[C@H]5[C@@H](C)[C@H]4O (stereo not given in full)	0.0713	0.449	0.35	0.733	1.21	0.152	0.103	0.443		0.435	> 100	0.132		0.234		0.203	0.284	0.163	0.724
C[C@]12CC[C@H]3[C@@H](CCC4=CC(=O)CC[C@@]43C)[C@@H]1CC[C@@H]2C(=O)Nc1ccc([N+](=O)[O-])c(C(F)(F)F)c1	32.5	32.8	38.9	40	38.5	> 10		32.3	31.5	41	87.4	36.5	33.6		36.8	32.1	34.9	> 10	36.7
CC1=NN(c2cccc(Cl)c2)C(=N/c2nc3ccccc3s2)/C1=C\c1cccs1	> 100	> 100	> 100	> 100	56.5	61.8	> 100	> 100	60.2		64.8	> 100	82.5	> 100		> 100	> 100	> 100	
N#Cc1c(-c2cccc(Cl)c2)cc(-c2ccc(Cl)cc2)nc1N	30.1	27.5	41.6	49.2	63.5	38.2	36.9	37.6	30.9	34.4	40	37.7		32.3	25.5	44	33.1	42.3	28.6
CCCNC(=O)Cn1c(C)cc2ccccc21	> 100	> 100	> 100	> 100	> 100	> 100	> 100	> 100	> 100	> 100	> 100	> 100		> 100	> 100	> 100	> 100	> 100	> 100
O=Nc1sc(=N\O)/c(=N/O)sc1NO	> 100	> 100	> 100	> 100	> 100	> 100	> 100	> 100	> 100	> 100	> 100		> 100	> 100	> 100	> 100	> 100	> 100	> 100
OCCCc1cc(O)c2c(c1)C(CO)C(c1ccc(O)c(O)c1)O2 (stereo not given)	> 100	> 100	> 100	> 100	> 100	> 100	> 100	> 100	> 100	> 100	> 100	> 100	> 100		> 100	> 100		> 100	> 100
COCCN(CCOC)C(=O)COc1c2cc(C(C)(C)C)cc1Cc1cc(C(C)(C)C)cc(c1OCC(=O)N(CCOC)CCOC)Cc1cc(C(C)(C)C)cc(c1OCC(=O)N(CCOC)CCOC)Cc1cc(C(C)(C)C)cc(c1OCC(=O)N(CCOC)CCOC)Cc1cc(C(C)(C)C)cc(c1OCC(=O)N(CCOC)CCOC)C2	2.78		12.6	3.48	33	4.19	13	10.7	2.05	11.4	3.63	19.1	9.53	4.03	16.4	8.13	17.5	12.1	1.96
CCC(CCN)(CCN)[N+](=O)[O-]	> 100			> 100	> 100		> 100	> 100	> 100	> 100	> 100	> 100		> 100		> 100		> 100	> 100
CSc1ccc(-c2cc(-c3nc4ccccc4[nH]3)nc(N)c2C#N)cc1	29		> 100	98.7	> 100	99.5	33.8	47.2		> 100	65.8	61.6	50	24.7	> 100	56.7		66.1	34.7
Nc1ncnc2c1ncn2C1C=CC(COS(N)(=O)=O)C1 (stereo not given)	> 100	> 100	> 100	> 100	> 100	82.1	> 100	> 100	> 100	> 100	> 100	> 100		> 100	> 100	> 100	> 100	> 100	> 100
CO/N=C(\C(=O)Nc1cncs1)c1csc(N)n1	> 10	> 10	> 10	> 10	> 10	> 10	> 10	> 10	> 10	> 10	> 10	> 10	> 10		> 10	> 10	> 10	> 10	> 10
COc1cc([C@H]2CC(=O)C[C@@H](c3cc(OC)c(OC)c(OC)c3)C23C(=O)c2ccccc2C3=O)cc(OC)c1OC	> 100	> 100	> 100	> 100	> 100	> 100	> 100	> 100	> 100	> 100	> 100	> 100		> 100	> 100	> 100	> 100	> 100	> 100
CCCC(=O)NC(C(=O)OCC)(N1CCOCC1)C(F)(F)F (stereo not given)	> 100	> 100	> 100	> 100	> 100	> 100	> 100	> 100	> 100	> 100	> 100	> 100		> 100	> 100	> 100	> 100	> 100	> 100
Cc1cn([C@H]2C[C@@H]3[C@@H](COC(CCl)N3O)O2)c(=O)[nH]c1=O (stereo not given in full)	> 100	> 100		> 100	> 100		> 100	> 100	> 100	> 100	> 100	> 100	> 100	> 100	> 100	> 100	> 100	> 100	> 100
CSc1nc2c(c(=O)[nH]1)N=C(c1ccc(Cl)cc1)CC(c1ccccc1)N2 (stereo not given)	26.1	26.8	29	45.3	29.5	30	29.9	38.3	39.3	30	> 100		> 100	34.4	29.9	31.4	23.6	31.4	34
CNC(=O)CNC(=O)C(NC(=O)CNC(=O)C1CCCN1C(=O)C(C)NC(=O)C(NC(C)=O)C(C)C)C(C)C (stereo not given) (Ac-VAPGVG-NHMe; configuration not given here)		> 100	> 100	> 100	> 100	> 100	> 100	> 100	> 100	> 100	> 100	> 100	> 100		> 100	> 100	> 100	> 100	> 100
CC1OC(OC2C(CO)OC(O[C@H]3CC[C@@]4(C)C(=CC[C@H]5[C@@H]6C[C@@H]7O[C@](O)(CC[C@H](C)COC8OC(CO)C(O)C(O)C8O)[C@@H](C)[C@@H]7[C@@]6(C)CC[C@@H]54)C3)C(OC3OC(C)C(O)C(O)C3O)C2O)C(O)C(O)C1O (stereo not given in full)	> 32.8	13.3	40.3	15.9	18.4	17.4		7.03	> 33	> 26	> 100	11.5	> 100	98.7	8.65	> 100	28.8	11.3	> 35.5
C=C(C)[C@H]1C[C@@H]2O[C@@](O)(/C(C)=C\C(=O)/C=C(/C)C[C@H]3OC(=O)[C@@]24O[C@H]34)[C@@H]1O	> 100		> 100	> 100	> 100		> 100	> 100	> 100	> 100	> 100	> 100	> 100	97.6	> 100	> 100	> 100	> 100	> 100
CC(CO)(CBr)COC(=O)c1cc(Br)c(N)c(Br)c1 (stereo not given)	> 100	11.3	> 100	> 100	> 100	> 100	> 100	> 100	> 100	> 100	> 100	> 100	> 100		> 100	> 100	> 100	> 100	> 100
C/C(=N\Nc1nc2ccccc2s1)c1cnccn1	16	23.6	21.1	> 67.4	4.88	12.3	12.3	> 100	> 100	> 80.8	> 100	> 22.7		40.7	> 29.4	2.81	> 100	> 100	> 36.9
C[C@@H](CO)C1=CC(C#C[Si](C)(C)C)N(C(=O)Oc2ccccc2)c2ccccc21 (stereo not given in full)	30.5	30.4	42.1	64.1	31.3	23.1	35.6	15.5	35.8	30.9	> 100	39		20	82	35.2	27	23.7	> 100
NC(=NCCN1CCCCCCC1)NO	> 100	> 100	43.4	> 100	> 100	> 100	> 100	> 100		> 100	> 100	> 100	> 100	> 100	> 100	> 100	> 100	> 100	> 100
